Experimental data as given in PubChem BioAssay AID1963970 (Molecular Pharmacology Branch, DTP, NCI, 2024).
pIC50: −log10 of the molar value.

Tested on: 931267-113-T-J1-PDC multicell spheroid viability
Test: Anticancer human tumor 931267-113-T-J1-PDC patient-derived colon adenocarcinoma cell line growth inhibition [PI3K]
Conditions: for pIC50: curve of first compound; for viability, T/C: stronger effect = lower value
Method in brief: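 Multi-cell spheroids combine tumor cells with HUVEC and human MSCs, treated with targeted agents alone or with inavolisib, alpelisib, duvelisib or copanlisib. Concentrations fall in half-log steps from at or near clinical Cmax, or from 10 microM where Cmax is unknown; viability read-out.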

[1] = second compound 0.0316 µM, first compound 0.0316 µM
[2] = second compound 0.0316 µM, first compound 0.1 µM
[3] = second compound 0.0316 µM, first compound 0.316 µM
[4] = second compound 0.0316 µM, first compound 1 µM
[5] = second compound 0.0316 µM, first compound 3.16 µM
[6] = second compound 0.0316 µM, first compound 10 µM
[7] = second compound 0.1 µM, first compound 0.0316 µM
[8] = second compound 0.1 µM, first compound 0.1 µM
[9] = second compound 0.1 µM, first compound 0.316 µM
[10] = second compound 0.1 µM, first compound 1 µM
[11] = second compound 0.1 µM, first compound 3.16 µM
[12] = second compound 0.1 µM, first compound 10 µM
[13] = second compound 0.316 µM, first compound 0.0316 µM
[14] = second compound 0.316 µM, first compound 0.1 µM
[15] = second compound 0.316 µM, first compound 0.316 µM
[16] = second compound 0.316 µM, first compound 1 µM
[17] = second compound 0.316 µM, first compound 3.16 µM
[18] = second compound 0.316 µM, first compound 10 µM
[19] = second compound 1 µM, first compound 0.0316 µM
[20] = second compound 1 µM, first compound 0.1 µM
[21] = second compound 1 µM, first compound 0.316 µM
[22] = second compound 1 µM, first compound 1 µM
[23] = second compound 1 µM, first compound 3.16 µM
[24] = second compound 1 µM, first compound 10 µM
[25] = second compound 3.16 µM, first compound 0.0316 µM
[26] = second compound 3.16 µM, first compound 0.1 µM
[27] = second compound 3.16 µM, first compound 0.316 µM
[28] = second compound 3.16 µM, first compound 1 µM
[29] = second compound 3.16 µM, first compound 3.16 µM
[30] = second compound 3.16 µM, first compound 10 µM
[31] = second compound 10 µM, first compound 0.0316 µM
[32] = second compound 10 µM, first compound 0.1 µM
[33] = second compound 10 µM, first compound 0.316 µM
[34] = second compound 10 µM, first compound 1 µM
[35] = second compound 10 µM, first compound 3.16 µM
[36] = second compound 10 µM, first compound 10 µM
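Note: viability read 7 days after compound addition.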

## CC1(C)CCC(CN2CCN(c3ccc(C(=O)NS(=O)(=O)c4ccc(NCC5CCOCC5)c([N+](=O)[O-])c4)c(Oc4cnc5[nH]ccc5c4)c3)CC2)=C(c2ccc(Cl)cc2)C1 + CC(Nc1ncnc2nc[nH]c12)c1cc2cccc(Cl)c2c(=O)n1-c1ccccc1
Second compound 0.0316 µM
  pIC50: 5.15
Second compound 0.1 µM
  pIC50: 5.15
Second compound 0.316 µM
  pIC50: 5.14
Second compound 1 µM
  pIC50: 5.16
Second compound 3.16 µM
  pIC50: 5.15
Second compound 10 µM
  pIC50: 5.17
[1]
  viability, T/C: 105%
[2]
  viability, T/C: 105%
[3]
  viability, T/C: 102%
[4]
  viability, T/C: 110%
[5]
  viability, T/C: 99.3%
[6]
  viability, T/C: 28.5%
[7]
  viability, T/C: 113%
[8]
  viability, T/C: 112%
[9]
  viability, T/C: 105%
[10]
  viability, T/C: 106%
[11]
  viability, T/C: 107%
[12]
  viability, T/C: 25.9%
[13]
  viability, T/C: 103%
[14]
  viability, T/C: 98.2%
[15]
  viability, T/C: 106%
[16]
  viability, T/C: 110%
[17]
  viability, T/C: 101%
[18]
  viability, T/C: 29.1%
[19]
  viability, T/C: 105%
[20]
  viability, T/C: 101%
[21]
  viability, T/C: 95.3%
[22]
  viability, T/C: 103%
[23]
  viability, T/C: 92.4%
[24]
  viability, T/C: 28.9%
[25]
  viability, T/C: 101%
[26]
  viability, T/C: 107%
[27]
  viability, T/C: 97.4%
[28]
  viability, T/C: 107%
[29]
  viability, T/C: 99.3%
[30]
  viability, T/C: 29%
[31]
  viability, T/C: 92.9%
[32]
  viability, T/C: 87.7%
[33]
  viability, T/C: 98.4%
[34]
  viability, T/C: 97.3%
[35]
  viability, T/C: 92.6%
[36]
  viability, T/C: 28.4%

## C[C@@H](NC(=O)c1ncnc(N)c1Cl)c1ncc(C(=O)Nc2cc(C(F)(F)F)c(Cl)cn2)s1 + CC(Nc1ncnc2nc[nH]c12)c1cc2cccc(Cl)c2c(=O)n1-c1ccccc1
Second compound 0.0316 µM
  pIC50: < 5.00
Second compound 0.1 µM
  pIC50: < 5.00
Second compound 0.316 µM
  pIC50: < 5.00
Second compound 1 µM
  pIC50: < 5.00
Second compound 3.16 µM
  pIC50: < 5.00
Second compound 10 µM
  pIC50: < 5.00
[1]
  viability, T/C: 107%
[2]
  viability, T/C: 117%
[3]
  viability, T/C: 117%
[4]
  viability, T/C: 104%
[5]
  viability, T/C: 92.7%
[6]
  viability, T/C: 74.5%
[7]
  viability, T/C: 121%
[8]
  viability, T/C: 107%
[9]
  viability, T/C: 110%
[10]
  viability, T/C: 111%
[11]
  viability, T/C: 98.9%
[12]
  viability, T/C: 78.1%
[13]
  viability, T/C: 113%
[14]
  viability, T/C: 116%
[15]
  viability, T/C: 104%
[16]
  viability, T/C: 110%
[17]
  viability, T/C: 103%
[18]
  viability, T/C: 75.1%
[19]
  viability, T/C: 115%
[20]
  viability, T/C: 114%
[21]
  viability, T/C: 105%
[22]
  viability, T/C: 110%
[23]
  viability, T/C: 107%
[24]
  viability, T/C: 69.4%
[25]
  viability, T/C: 98.5%
[26]
  viability, T/C: 108%
[27]
  viability, T/C: 103%
[28]
  viability, T/C: 95.8%
[29]
  viability, T/C: 98.2%
[30]
  viability, T/C: 66.5%
[31]
  viability, T/C: 96.4%
[32]
  viability, T/C: 107%
[33]
  viability, T/C: 99.8%
[34]
  viability, T/C: 106%
[35]
  viability, T/C: 86%
[36]
  viability, T/C: 53.2%

## Cn1ncnc1[C@H]1c2n[nH]c(=O)c3cc(F)cc(c23)N[C@@H]1c1ccc(F)cc1 + CC(Nc1ncnc2nc[nH]c12)c1cc2cccc(Cl)c2c(=O)n1-c1ccccc1
Second compound 0.0316 µM
  pIC50: < 7.00
Second compound 0.1 µM
  pIC50: < 7.00
Second compound 0.316 µM
  pIC50: < 7.00
Second compound 1 µM
  pIC50: < 7.00
Second compound 3.16 µM
  pIC50: < 7.00
Second compound 10 µM
  pIC50: < 7.00
Second compound 0.0316 µM, first compound 0.000316 µM
  viability, T/C: 105%
Second compound 0.0316 µM, first compound 0.001 µM
  viability, T/C: 102%
Second compound 0.0316 µM, first compound 0.00316 µM
  viability, T/C: 102%
Second compound 0.0316 µM, first compound 0.01 µM
  viability, T/C: 99.6%
[1]
  viability, T/C: 114%
[2]
  viability, T/C: 103%
Second compound 0.1 µM, first compound 0.000316 µM
  viability, T/C: 117%
Second compound 0.1 µM, first compound 0.001 µM
  viability, T/C: 112%
Second compound 0.1 µM, first compound 0.00316 µM
  viability, T/C: 96%
Second compound 0.1 µM, first compound 0.01 µM
  viability, T/C: 98.5%
[7]
  viability, T/C: 111%
[8]
  viability, T/C: 95.3%
Second compound 0.316 µM, first compound 0.000316 µM
  viability, T/C: 110%
Second compound 0.316 µM, first compound 0.001 µM
  viability, T/C: 113%
Second compound 0.316 µM, first compound 0.00316 µM
  viability, T/C: 110%
Second compound 0.316 µM, first compound 0.01 µM
  viability, T/C: 102%
[13]
  viability, T/C: 108%
[14]
  viability, T/C: 106%
Second compound 1 µM, first compound 0.000316 µM
  viability, T/C: 109%
Second compound 1 µM, first compound 0.001 µM
  viability, T/C: 108%
Second compound 1 µM, first compound 0.00316 µM
  viability, T/C: 101%
Second compound 1 µM, first compound 0.01 µM
  viability, T/C: 100%
[19]
  viability, T/C: 100%
[20]
  viability, T/C: 104%
Second compound 3.16 µM, first compound 0.000316 µM
  viability, T/C: 104%
Second compound 3.16 µM, first compound 0.001 µM
  viability, T/C: 101%
Second compound 3.16 µM, first compound 0.00316 µM
  viability, T/C: 99.4%
Second compound 3.16 µM, first compound 0.01 µM
  viability, T/C: 97.6%
[25]
  viability, T/C: 112%
[26]
  viability, T/C: 93.3%
Second compound 10 µM, first compound 0.000316 µM
  viability, T/C: 103%
Second compound 10 µM, first compound 0.001 µM
  viability, T/C: 94.6%
Second compound 10 µM, first compound 0.00316 µM
  viability, T/C: 87.4%
Second compound 10 µM, first compound 0.01 µM
  viability, T/C: 98.8%
[31]
  viability, T/C: 100%
[32]
  viability, T/C: 88.1%
